Test results from US7125546B2, “Polymeric micelle containing cisplatin enclosed therein and use thereof” (Toudai TLO, Ltd., priority 2000, dated 2006).
Values joined by “and” are separate entries in the source; they are usually repeats but may differ in a detail not shown here. Identical values can stand only once.

Experiments:
[1] = Urea nitrogen (BUN) value in blood plasma 6 days after single caudate vein administration to normal mice (index for nephrotoxicity); conditions: normal mouse, 6 days after single administration, ratio to non-treated group
Protocol: (§1) In FIG. 5, calculated were duration integrations (up to 17 days since drug treatment) of relative values in a change in a tumor volume and a weight change on a zero day, and the ratios of the drug-treated group to the drug-non-treat group in the values were shown as an antitumor effect and a weight change respectively. Further, the drug was administered once from a caudate vein to a normal C57BL6/N mouse (n=4, male, 6 ages in week) to evaluate a urea nitrogen (BUN) value in blood plasma after 6 days. […] The ratio of the drug-treated group to the drug-non-treat group in this BUN value was calculated as well, and the relative BUN value to the CDDP-equivalent dosage was shown in FIG. 5(C).

[2] = Blood plasma platinum concentration and accumulation of platinum in tumor and principal organs after caudate vein administration to tumor-bearing mice
Protocol: Evaluated were a change in a blood plasma platinum concentration and a change with the passage of time in accumulation of platinum in the principal organs observed when free CDDP and the CDDP-encapsulating micelle were administered from a caudate vein to a C57BL6/N mouse (n=4, male, 6 ages in week) in which Louis pulmonary cancer was subcutaneously transplanted to a hypogastric region, and the results thereof are shown in FIG. 4.

Louis pulmonary cancer = assay: Antitumor effect and weight change after single caudate vein administration to mice with subcutaneously transplanted Louis pulmonary cancer
Protocol: as §1

[3] = 0–24 hours, tissue platinum concentration-time curve

## cis-Diaminedichloroplatinum (II) [CDDP]
[1]
  relative BUN value: rise in the BUN value
[2]; [3]
  Kidney AUC/tumor AUC: 3.9 and 7.7
  Liver AUC/tumor AUC: 2.6 and 2.7
  Muscle AUC/tumor AUC: 0.13 and 0.17
  Spleen AUC/tumor AUC: 0.31 and 0.43
[2]; immediately after administration (about 15 minutes)
  accumulation of platinum in a kidney: high accumulation immediately after administration
Louis pulmonary cancer; 12 mg/kg
  toxic death: one mouse out of 3 mice
Louis pulmonary cancer; mouse, in vivo
  weight change: reduction in the weight
Louis pulmonary cancer; single caudate vein administration, tumor volume integration up to 17 days, ratio to non-treated group
  antitumor effect: increase in the antitumor effect
